Key:
[1] = molecular target: T1, RPA:RAD52 protein-protein interaction (Homo sapiens, UniProt P43351); test: FluorIA (Fluorescence-based protein-protein Interaction Assay), GFP-RAD52 binding to plate-coated RPA; settings: polynomial curve fitting; 15 dose concentrations 0.03–500 μM, triplicate; RAD52(1–303) positive control; read-out: EC50 in FluorIA (inhibition of RPA:RAD52 PPI)
T1 construct: made in house
T1 sequence (P43351 1-418): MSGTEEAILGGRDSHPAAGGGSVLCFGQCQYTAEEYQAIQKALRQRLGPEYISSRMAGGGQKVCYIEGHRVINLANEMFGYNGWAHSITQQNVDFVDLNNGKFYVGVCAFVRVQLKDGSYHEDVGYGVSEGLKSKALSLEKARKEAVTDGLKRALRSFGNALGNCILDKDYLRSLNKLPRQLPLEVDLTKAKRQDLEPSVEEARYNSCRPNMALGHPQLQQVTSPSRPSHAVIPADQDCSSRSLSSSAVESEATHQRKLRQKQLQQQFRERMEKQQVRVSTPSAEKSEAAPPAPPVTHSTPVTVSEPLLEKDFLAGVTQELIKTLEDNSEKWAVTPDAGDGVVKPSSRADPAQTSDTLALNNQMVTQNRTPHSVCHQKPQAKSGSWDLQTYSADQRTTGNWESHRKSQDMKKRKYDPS
Method: A newly developed fluorescence-based assay for detecting protein-protein interactions, FluorIA was used to identify SMIs of RPA:RAD52 PPI. The detailed FluorIA protocol is published elsewhere. Briefly, 384-well plates (Thermo Fisher Scientific, #460518) were coated with purified RPA. Then compounds or controls were added and incubated with freshly prepared GFP-RAD52. RAD52(1–303) without GFP-tag and buffer (including DMSO) only were used as controls. Then the relative fluorescence (RFU) was measured using a POLARstar OPTIMA plate reader (BMG LABTECH) on emptied plates at an excitation/emission (for eGFP) of 485/520 nm at 2500 gain setting.
Three chemical libraries the 355-member SelleckChem Kinase Inhibitor Library, the 1200-member Prestwick Chemical Library, and the 100,000-member ChemBridge library were used for the screening. The screening of the SelleckChem Kinase Inhibitor and the Prestwick libraries were performed at 10 and 100 μM each in duplicate. The screening of the ChemBridge library was conducted at 100 μM. […] The statistical criteria for a hit were fully described in Al-Mugotir et al.. Each hit was verified in triplicate at 10 and 100 μM.
The in vitro EC50 value of each hit was determined with FluorIA. The chemicals were serially diluted by two-fold increments from 0.030 to 500 μM and analyzed in triplicate with FluorIA. RAD52(1–303) was used as a positive control and buffer with DMSO was used as a negative control. Candidate SMIs with strong inhibition were purchased, and a 1D NMR analysis was carried out to verify their identities. The eleven candidates SMIs were purchased as follows: 5137134, 5246481, 52614577,5316833, 5373030, and 7623574 from Chembridge HIT2LEAD, 5989499 from Wuxi lab network, 5375405 from Aronis, quinacrine and mitoxantrone from Sigma Aldrich, and doxorubicin from LC labs. D-I03 was purchased from Molport. Their effectiveness in inhibiting the RPA:RAD52 PPI was confirmed after purchase with the FluorIA as described above (S1 Fig).
Supplementary file pone.0248941.s001.tif: S1 Fig Validation experiments of eleven hits with the FlourIA. Sixteen treatment concentrations were used (0.030–500 μM) increasing by two-fold increments of each molecule/drug obtained as a hit in HTS FluorIA. RAD52(1–303) without GFP-tag and buffer (including DMSO) only were used as controls. Percent inhibition was calculated as follows: [(RFUSMI—RFURAD52(1–303)) / (RFUDMSO—RFURAD52(1–303))]*100, where RFU is relative fluorescence unit. An average of triplicate measurements was used. The treatment points for quinacrine and doxorubicin beyond 125 μM were showing characteristics of aggregation and were not used. (TIF) Click here for additional data file.

[2] = system: BRCA1-deficient HCC1937 breast cancer cells (empty vector, BRCA1-); test: Cell viability assay (PrestoBlue, 72 h), HCC1937 with empty vector; assay type: cell-based; settings: Homo sapiens, estimated from the graphs
Method: Fig 2 BRCA1-deficient HCC1937 breast cancer cell line survival assay. BRCA1-deficient HCC1937 cells corrected with wild-type BRCA1 gene (BRCA1+; closed triangle), and with an empty vector (BRCA1-; closed circle) were examined. For each experiment (Figs 2–4), cell lines were treated with nine concentrations of (A) quinacrine, (B) mitoxantrone, and (C) doxorubicin in 96-well culture plates at 5x10^3 cell/well density. Each treatment point was made in sextuplicate. Treated cells were incubated for 72 hours at 37°C before assessing cell viability using PrestoBlue. Data were normalized to vehicle control. The experiment was repeated three times. Error bars indicate the standard deviation.
The HCC1937 cell line (a gift from Dr. Simon Powell Memorial Sloan Kettering (MSK), New York) was derived from a mammary gland primary ductal carcinoma at the early onset of a tumor. This TNBC patient carried a germline mutation in BRCA1, resulting in carboxy-terminal truncated protein and loss of the second BRCA1 allele. BRCA1-restored and empty vector cell lines were also obtained by transfection of a vector containing a full-length human BRCA1 cDNA or an empty vector, respectively. The HCC1937 cell lines were cultured as described.
Cells were seeded 5 x 10^3 cells per well in 96-well plates in a 90 μL volume per well one day before treatment. Cells in 96-well plates were incubated with increasing concentrations of the compound or vehicle control (1% DMSO) for 72 hours. Each treatment plate contained nine concentrations of a compound in sextuplicate. Growth inhibition was determined using PrestoBlue reagent (Life Technologies, #A13261). Fluorescent measurements were taken using a Spectramax M5 plate reader (MDS). To assess cells’ replication in the absence of compounds as a control, six wells on each plate were treated with vehicle to be read in triplicate at the initial treatment day (T0) and at 72-hour read (T100).

Compound O=C1c2c(O)ccc(O)c2C(=O)c2c(NCCNCCO)ccc(NCCNCCO)c21 [Mitoxantrone, mitoxantrone] has an EC50 [1] of 29.7 µM and an EC50 [2] of 0.8 µM.

Reference: article PMC8009417, “Selective killing of homologous recombination-deficient cancer cell lines by inhibitors of the RPA:RAD52 protein-protein interaction” (PLoS ONE, 2021)
